Test results reported in patent publication US20030133923A1, “Composition for preventing the formation and enhancing the breakdown of bezoars in animals and humans” (priority 2001, published 2003).

Assay: In vitro breakdown of a feline hairball under simulated stomach conditions (pH 3.0, 100° F., 24 hours)
Details: for % enhanced break down: versus 0% Tween-80; for Hair clump wt: hairball 1.0-1.1 g
Description: Tween 80 (lot#1373A, Uniqema, Wilmington, Del.) was dissolved in 150 ml acidified water (pH 3.0) at a concentration of 0%, 5%, 10%, 15%, and 20%. A feline hairball (1.0-1.1 g) was then added to each of the five solutions. The mixtures were incubated at 100° F. for 24 hours. After incubation, hair lumps (defined as hair not floating free in the liquid) was removed and the liquid was strained through cheesecloth. Free hair and hair lumps were then dried and weighed.

Question: With CCCCCCCC/C=C\CCCCCCCC(=O)OCCOCC(OCCO)C1OCC(OCCO)C1OCCO (centres unmarked) [Tween-80] as the compound, how does the Free hair wt (5% Tween-80, pH 3.0, 100° F.) read?
Answer: Its Free hair wt is 0.1606 g.

Question: What about the “Free hair wt (% total wt)” value (5% Tween-80, pH 3.0, 100° F.) of the same compound?
Answer: Its value is 20.38%.

Question: And the “Hair clump wt (% total wt)” value (5% Tween-80, pH 3.0, 100° F.)?
Answer: Its value is 79.62%.

Question: And the “% enhanced break down” value (5% Tween-80, pH 3.0, 100° F.)?
Answer: The value was 5%.

Question: And the Hair clump wt (5% Tween-80 in 150 ml acidified water pH 3.0, 100° F.)?
Answer: The Hair clump wt was 0.6273 g.

Question: What about the Free hair wt (10% Tween-80, pH 3.0, 100° F.) of the same compound?
Answer: The Free hair wt was 0.2576 g.

Question: And the “Free hair wt (% total wt)” value (10% Tween-80, pH 3.0, 100° F.)?
Answer: Its value is 53.78%.

Question: And the “Hair clump wt (% total wt)” value (10% Tween-80, pH 3.0, 100° F.)?
Answer: Its value is 46.22%.

Question: What about the “% enhanced break down” value (10% Tween-80, pH 3.0, 100° F.) of the same compound?
Answer: Its value is 35%.

Question: What about the Hair clump wt (10% Tween-80 in 150 ml acidified water pH 3.0, 100° F.) of the same compound?
Answer: Its Hair clump wt is 0.2214 g.

Question: What about the Free hair wt (15% Tween-80, pH 3.0, 100° F.) of the same compound?
Answer: The Free hair wt was 0.1980 g.

Question: What about the “Free hair wt (% total wt)” value (15% Tween-80, pH 3.0, 100° F.) of the same compound?
Answer: The value was 47.86%.

Question: What about the “Hair clump wt (% total wt)” value (15% Tween-80, pH 3.0, 100° F.) of the same compound?
Answer: Its value is 52.14%.

Question: And the “% enhanced break down” value (15% Tween-80, pH 3.0, 100° F.)?
Answer: Its value is 35%.

Question: And the Hair clump wt (15% Tween-80 in 150 ml acidified water pH 3.0, 100° F.)?
Answer: Its Hair clump wt is 0.2157 g.

Question: What about the Free hair wt (20% Tween-80, pH 3.0, 100° F.) of the same compound?
Answer: The Free hair wt was 0.2480 g.

Question: What about the “Free hair wt (% total wt)” value (20% Tween-80, pH 3.0, 100° F.) of the same compound?
Answer: The value was 51.99%.

Question: And the “Hair clump wt (% total wt)” value (20% Tween-80, pH 3.0, 100° F.)?
Answer: Its value is 48.00%.

Question: And the “% enhanced break down” value (20% Tween-80, pH 3.0, 100° F.)?
Answer: Its value is 35%.

Question: What about the Hair clump wt (20% Tween-80 in 150 ml acidified water pH 3.0, 100° F.) of the same compound?
Answer: Its Hair clump wt is 0.2290 g.
